The text below walks through data of PMC6009973 (Journal of Enzyme Inhibition and Medicinal Chemistry, 2017).

This test deals with T1, CpeCA (Clostridium perfringens, UniProt A0A0H2YPC2).
T1 construct: gene CPF_0414
T1 sequence (A0A0H2YPC2 1-190): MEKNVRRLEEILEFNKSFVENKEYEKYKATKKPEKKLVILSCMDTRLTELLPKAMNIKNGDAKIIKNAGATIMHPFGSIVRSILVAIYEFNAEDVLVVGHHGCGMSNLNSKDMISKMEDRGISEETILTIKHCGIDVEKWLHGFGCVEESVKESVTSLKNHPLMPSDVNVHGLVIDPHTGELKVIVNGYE
As to conditions: read-out: CpeCA^bβ; CO2 1.7-17 mM, 20 mM TRIS pH 8.3, 20 mM Na2SO4, 15 min pre-incubation at room temperature; errors 5-10%.
As for `NS(=O)(=O)Cc1noc2ccccc12` [ZNS, zonisamide], the Ki is over 100000 nM.

In the case of `NS(=O)(=O)c1cc(Cl)c(Cl)c(S(N)(=O)=O)c1` [DCP, dichlorophenamide], the Ki came out at 68 nM.

Consider `NS(=O)(=O)c1nnc(NS(=O)(=O)c2ccccc2)s1` [BZA, benzolamide], for which the Ki was found to be 497 nM.

Turning to `NS(=O)(=O)c1ccc(S(=O)(=O)Nc2cccc3c(Cl)c[nH]c23)cc1` [IND, indisulam], the Ki amounted to 173 nM.

Turning to `Cc1ccc(-c2cc(C(F)(F)F)nn2-c2ccc(S(N)(=O)=O)cc2)cc1` [CLX, celecoxib], the Ki was 312 nM.

With `CCN[C@H]1CN(CCCOC)S(=O)(=O)c2sc(S(N)(=O)=O)cc21` [BRZ, brinzolamide], the Ki worked out at 121 nM.

For `NS(=O)(=O)c1ccc(CCNS(=O)(=O)c2ccc([N+](=O)[O-])cc2CO)cc1` [compound 24, 4-(2-hydroxymethyl-4-nitrophenyl-sulphonamido)ethylbenzenesulphonamide], the Ki worked out at 51.2 nM.

On to `NS(=O)(=O)c1ccc(N2CCCCS2(=O)=O)cc1` [SLT, sulthiame], for which the Ki was 63.1 nM.

Turning to `CC1(C)O[C@@H]2[C@@H](CO[C@@]3(COS(N)(=O)=O)OC(C)(C)O[C@@H]23)O1` [TPM, topiramate], the Ki is 204 nM.

As for `Cc1onc(-c2ccccc2)c1-c1ccc(S(N)(=O)=O)cc1` [VLX, valdecoxib], the Ki was 160 nM.

`CC(=O)N=c1sc(S(N)(=O)=O)nn1C` [MZA, methazolamide]: the Ki is 113 nM.

As for `O=C1NS(=O)(=O)c2ccccc21` [SAC, saccharin], the Ki was over 100000 nM.

With `CCN1CCCC1CNC(=O)c1cc(S(N)(=O)=O)ccc1OC` (centres unmarked) [SLP, sulpiride], the Ki was 389 nM.

For the compound `NS(=O)(=O)c1cc2c(cc1Cl)NCNS2(=O)=O` [HCT, hydrochlorothiazide], the Ki worked out at 219 nM.
